From ChEMBL document CHEMBL1926605, “Synthesis, structure-activity relationships, and mechanism of action of anti-HIV-1 lamellarin α 20-sulfate analogues” (Bioorg Med Chem, 2011)
Calls of active or inactive are those of the source. The calls are words filed in the database; no cut-off is given here.

What follows are molecules tested on Human immunodeficiency virus 1 (assay: Antiviral activity against HIV1 in COS7 cells expressing HXB2 Env, R8.91, and pTY-EFnLacZ assessed as reduction of viral vector infection into human HeLa cells expressing CD4 at 100 uM after 2 days using 5-bromo-4-chloro-3-indolyl-beta-D-galactopyranoside staining). Conditions: not given.
Assay type: functional, organism-based

How did the Activity turn out when `COc1ccc(-c2c3c4cc(OC)c(OS(=O)(=O)[O-])cc4oc(=O)c3n3ccc4cc(OS(=O)(=O)[O-])c(OC)cc4c23)cc1OS(=O)(=O)[O-].[Na+].[Na+].[Na+]` was run?
Its Activity is “Active”.

For `COc1cc2ccn3c(c(-c4ccc(OC)c(OS(=O)(=O)[O-])c4)c4c5cc(OC)c(OS(=O)(=O)[O-])cc5oc(=O)c43)c2cc1OC.[Na+].[Na+]`, which Activity is on record?
Its Activity is “Active”.

How did the Activity turn out when `COc1cc2c(cc1O)oc(=O)c1c2c(-c2ccc(OC)c(OS(=O)(=O)[O-])c2)c2c3cc(OC)c(OC)cc3ccn21.[Na+]` was run?
Its Activity is “Active”.

Which Activity does the source give for `COc1ccc(-c2c3c4cc(OC)c(OS(=O)(=O)[O-])cc4oc(=O)c3n3ccc4cc(OC)c(OC)cc4c23)cc1O.[Na+]` here?
The Activity was “Active”.

For `COc1ccc(-c2c3n(c4c(=O)oc5cc(OS(=O)(=O)[O-])c(OC)cc5c24)CCc2cc(OC)c(OC)cc2-3)cc1O.[Na+]`, which Activity is on record?
Its Activity is “Active”.

The molecules below were run on HeLa (assay: Cellular uptake in human HeLa cells expressing CD4 at 100 uM after 24 hrs by confocal laser scanning microscopy analysis). Conditions: not given.
Assay type: ADME, cell-based

`COc1ccc(-c2c3c4cc(OC)c(OS(=O)(=O)[O-])cc4oc(=O)c3n3ccc4cc(OS(=O)(=O)[O-])c(OC)cc4c23)cc1OS(=O)(=O)[O-].[Na+].[Na+].[Na+]` was tested. Which Drug uptake did it give?
Its Drug uptake is “Not Active”.

How did the Drug uptake turn out when `COc1cc2ccn3c(c(-c4ccc(OC)c(OS(=O)(=O)[O-])c4)c4c5cc(OC)c(OS(=O)(=O)[O-])cc5oc(=O)c43)c2cc1OC.[Na+].[Na+]` was run?
The Drug uptake was “Not Active”.

`COc1ccc(-c2c3c4cc(OC)c(O)cc4oc(=O)c3n3ccc4cc(OC)c(OC)cc4c23)cc1O` was tested. Which Drug uptake did it give?
The Drug uptake was “Active”.

With `COc1cc2c(cc1O)oc(=O)c1c2c(-c2ccc(OC)c(OS(=O)(=O)[O-])c2)c2c3cc(OC)c(OC)cc3ccn21.[Na+]` as the molecule, how does the Drug uptake read?
Its Drug uptake is “Not Active”.

How did the Drug uptake turn out when `COc1ccc(-c2c3c4cc(OC)c(OS(=O)(=O)[O-])cc4oc(=O)c3n3ccc4cc(OC)c(OC)cc4c23)cc1O.[Na+]` was run?
Its Drug uptake is “Not Active”.

`COc1ccc(-c2c3n(c4c(=O)oc5cc(OS(=O)(=O)[O-])c(OC)cc5c24)CCc2cc(OC)c(OC)cc2-3)cc1O.[Na+]` was tested. Which Drug uptake did it give?
The Drug uptake was “Not Active”.

Each molecule was assayed on Human immunodeficiency virus 1 (assay: Antiviral activity against LacZ-containing HIV1 in COS7 cells expressing HXB2 Env, R8.91, and pTY-EFnLacZ assessed as reduction of viral vector infection into human HeLa cells expressing CD4 after 2 days using 5-bromo-4-chloro-3-indolyl-beta-D-galactopyranoside staining). Conditions: Human immunodeficiency virus 1, HeLa, 48 h.
Assay type: functional, organism-based

With `COc1ccc(-c2c3c4cc(OC)c(OS(=O)(=O)[O-])cc4oc(=O)c3n3ccc4cc(OS(=O)(=O)[O-])c(OC)cc4c23)cc1OS(=O)(=O)[O-].[Na+].[Na+].[Na+]` as the molecule, how does the IC50 read?
The IC50 was 20.7 µM.

Which IC50 does the source give for `COc1ccc(-c2cn(CCc3ccc(OC)c(OC)c3)c3c(=O)oc4cc(OS(=O)(=O)O)c(OC)cc4c23)cc1O` here?
The IC50 was > 100 µM.

`COc1cc2ccn3c(c(-c4ccc(OC)c(OS(=O)(=O)[O-])c4)c4c5cc(OC)c(OS(=O)(=O)[O-])cc5oc(=O)c43)c2cc1OC.[Na+].[Na+]` was tested. Which IC50 did it give?
Its IC50 is 15.1 µM.

With `COc1ccc(-c2c3c4cc(OC)c(O)cc4oc(=O)c3n3ccc4cc(OC)c(OC)cc4c23)cc1O` as the molecule, how does the IC50 read?
Its IC50 is > 100 µM.

How did the IC50 turn out when `COc1cc2c(cc1O)oc(=O)c1c2c(-c2ccc(OC)c(OS(=O)(=O)[O-])c2)c2c3cc(OC)c(OC)cc3ccn21.[Na+]` was run?
The IC50 was 14.4 µM.

`COc1ccc(-c2c3c4cc(OC)c(OS(=O)(=O)[O-])cc4oc(=O)c3n3ccc4cc(OC)c(OC)cc4c23)cc1O.[Na+]` was tested. Which IC50 did it give?
The IC50 was 13 µM.

With `COc1ccc(-c2c3n(c4c(=O)oc5cc(OS(=O)(=O)[O-])c(OC)cc5c24)CCc2cc(OC)c(OC)cc2-3)cc1O.[Na+]` as the molecule, how does the IC50 read?
Its IC50 is 15.3 µM.

The molecules below were run on HeLa (assay: Cytotoxicity against human HeLa cells by MTT assay). Conditions: not given.
Assay type: cell-based

How did the Activity turn out when `COc1ccc(-c2c3c4cc(OC)c(OS(=O)(=O)[O-])cc4oc(=O)c3n3ccc4cc(OC)c(OC)cc4c23)cc1O.[Na+]` was run?
Its Activity is 274 µM.

The molecules below were run on HeLa (assay: Cytotoxicity against human HeLa cells expressing CD4 after 24 hrs by WST-1 assay). Conditions: not given.
Assay type: cell-based

Which IC50 does the source give for `COc1ccc(-c2c3c4cc(OC)c(OS(=O)(=O)[O-])cc4oc(=O)c3n3ccc4cc(OS(=O)(=O)[O-])c(OC)cc4c23)cc1OS(=O)(=O)[O-].[Na+].[Na+].[Na+]` here?
Its IC50 is > 100 µM.

How did the IC50 turn out when `COc1cc2ccn3c(c(-c4ccc(OC)c(OS(=O)(=O)[O-])c4)c4c5cc(OC)c(OS(=O)(=O)[O-])cc5oc(=O)c43)c2cc1OC.[Na+].[Na+]` was run?
Its IC50 is > 100 µM.

For `COc1cc2c(cc1O)oc(=O)c1c2c(-c2ccc(OC)c(OS(=O)(=O)[O-])c2)c2c3cc(OC)c(OC)cc3ccn21.[Na+]`, which IC50 is on record?
Its IC50 is > 100 µM.

For `COc1ccc(-c2c3c4cc(OC)c(OS(=O)(=O)[O-])cc4oc(=O)c3n3ccc4cc(OC)c(OC)cc4c23)cc1O.[Na+]`, which IC50 is on record?
Its IC50 is > 100 µM.

For `COc1ccc(-c2c3n(c4c(=O)oc5cc(OS(=O)(=O)[O-])c(OC)cc5c24)CCc2cc(OC)c(OC)cc2-3)cc1O.[Na+]`, which IC50 is on record?
Its IC50 is > 100 µM.

These molecules were tested on HeLa (assay: Cellular uptake in human HeLa cells expressing CD4 at 100 uM after 24 hrs by confocal laser scanning microscopy analysis in presence of methanol). Conditions: not given.
Assay type: ADME, cell-based

How did the Drug uptake turn out when `COc1ccc(-c2c3c4cc(OC)c(OS(=O)(=O)[O-])cc4oc(=O)c3n3ccc4cc(OS(=O)(=O)[O-])c(OC)cc4c23)cc1OS(=O)(=O)[O-].[Na+].[Na+].[Na+]` was run?
Its Drug uptake is “Active”.

`COc1cc2ccn3c(c(-c4ccc(OC)c(OS(=O)(=O)[O-])c4)c4c5cc(OC)c(OS(=O)(=O)[O-])cc5oc(=O)c43)c2cc1OC.[Na+].[Na+]` was tested. Which Drug uptake did it give?
The Drug uptake was “Active”.

With `COc1ccc(-c2c3c4cc(OC)c(O)cc4oc(=O)c3n3ccc4cc(OC)c(OC)cc4c23)cc1O` as the molecule, how does the Drug uptake read?
The Drug uptake was “Active”.

`COc1cc2c(cc1O)oc(=O)c1c2c(-c2ccc(OC)c(OS(=O)(=O)[O-])c2)c2c3cc(OC)c(OC)cc3ccn21.[Na+]` was tested. Which Drug uptake did it give?
Its Drug uptake is “Active”.

Which Drug uptake does the source give for `COc1ccc(-c2c3c4cc(OC)c(OS(=O)(=O)[O-])cc4oc(=O)c3n3ccc4cc(OC)c(OC)cc4c23)cc1O.[Na+]` here?
The Drug uptake was “Active”.

Which Drug uptake does the source give for `COc1ccc(-c2c3n(c4c(=O)oc5cc(OS(=O)(=O)[O-])c(OC)cc5c24)CCc2cc(OC)c(OC)cc2-3)cc1O.[Na+]` here?
The Drug uptake was “Active”.

These molecules were tested on Human immunodeficiency virus 1 (assay: Antiviral activity against HIV1 infected in MAGIC5 cells co-cultured with Cos7 cells assessed as inhibition of viral envelope mediated cell-cell fusion at 100 uM after 24 hrs by beta galactosidase assay). Conditions: COS-7.
Assay type: functional, organism-based

With `COc1ccc(-c2c3c4cc(OC)c(OS(=O)(=O)[O-])cc4oc(=O)c3n3ccc4cc(OS(=O)(=O)[O-])c(OC)cc4c23)cc1OS(=O)(=O)[O-].[Na+].[Na+].[Na+]` as the molecule, how does the inhibition read?
The inhibition was “Active”.

With `COc1ccc(-c2cn(CCc3ccc(OC)c(OC)c3)c3c(=O)oc4cc(OS(=O)(=O)O)c(OC)cc4c23)cc1O` as the molecule, how does the inhibition read?
The inhibition was “inactive”.

With `COc1cc2ccn3c(c(-c4ccc(OC)c(OS(=O)(=O)[O-])c4)c4c5cc(OC)c(OS(=O)(=O)[O-])cc5oc(=O)c43)c2cc1OC.[Na+].[Na+]` as the molecule, how does the inhibition read?
Its inhibition is “Active”.

Which inhibition does the source give for `COc1cc2c(cc1O)oc(=O)c1c2c(-c2ccc(OC)c(OS(=O)(=O)[O-])c2)c2c3cc(OC)c(OC)cc3ccn21.[Na+]` here?
The inhibition was “Active”.

With `COc1ccc(-c2c3c4cc(OC)c(OS(=O)(=O)[O-])cc4oc(=O)c3n3ccc4cc(OC)c(OC)cc4c23)cc1O.[Na+]` as the molecule, how does the inhibition read?
The inhibition was “Active”.

Which inhibition does the source give for `COc1ccc(-c2c3n(c4c(=O)oc5cc(OS(=O)(=O)[O-])c(OC)cc5c24)CCc2cc(OC)c(OC)cc2-3)cc1O.[Na+]` here?
Its inhibition is “Active”.
